Data: PMC6979384, “Characterization of the plant homeodomain (PHD) reader family for their histone tail interactions” (Epigenetics & Chromatin, 2020)

What was measured:
Test in all cases: Histone peptide microarray
Assay type in all cases: binding, human
Conditions in all cases: histone peptide array, arrays performed twice, n of 4
DPF2 (PPC2W2) = test system: DPF2 (PPC2W2)
Method in brief: (§1)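 Recombinant GST-PHD protein at 0.5 μM; 293-member modified histone peptide array; signals averaged from four repeats ± SD.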

PHRF1 (RP) = test system: PHRF1 (RP)
Method in brief: as §1

KDM5A (1) = test system: KDM5A (1)
Method in brief: as §1

PHF2 = test system: PHF2
Method in brief: as §1

KDM7A = test system: KDM7A
Method in brief: as §1

KDM4C (TTP) = test system: KDM4C (TTP)
Method in brief: as §1

DIDO1 = test system: DIDO1
Method in brief: as §1

ING1 = test system: ING1
Method in brief: as §1

ING5 = test system: ING5
Method in brief: as §1

AIRE (PP) = test system: AIRE (PP)
Method in brief: as §1

MORC3 (CW) = test system: MORC3 (CW)
Method in brief: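 GST-tagged PHD readers, 0.5 μM, probed on a microarray of 293 synthetic histone peptides carrying single or combinatorial PTMs (optimized Petell protocol). Signals are averaged over 4 replicates and expressed as relative binding.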

CHD5 (PCC) = test system: CHD5 (PCC)
Method in brief: as §1

KDM5B (3) = test system: KDM5B (3)
Method in brief: as §1

RAG2 = test system: RAG2
Method in brief: as §1

PHF23 = test system: PHF23
Method in brief: as §1

CHD4 (PPCC) = test system: CHD4 (PPCC)
Method in brief: as §1

SP140L = test system: SP140L
Method in brief: as §1

KDM5A (3) = test system: KDM5A (3)
Method in brief: as §1

PHF13 = test system: PHF13
Method in brief: as §1

BPTF (PB) = test system: BPTF (PB)
Method in brief: as §1

MLL5 = test system: MLL5
Method in brief: as §1

TRIM66 (PB) = test system: TRIM66 (PB)
Method in brief: as §1

PHF21A = test system: PHF21A
Method in brief: as §1

ING2 = test system: ING2
Method in brief: as §1

ING3 = test system: ING3
Method in brief: as §1

ING4 = test system: ING4
Method in brief: as §1

BAZ2B = test system: BAZ2B
Method in brief: as §1

TAF3 = test system: TAF3
Method in brief: as §1

PHF8 = test system: PHF8
Method in brief: as §1

CHD5 (PPCC) = test system: CHD5 (PPCC)
Method in brief: as §1

KDM5B (1) = test system: KDM5B (1)
Method in brief: as §1

[1] = GST-tagged reader, PPCC = Dual PHD + Dual Chromodomain
[2] = GST-tagged reader, PB = PHD + Bromodomain

## H4 (1-24): H4 1-24
DPF2 (PPC2W2); GST-tagged reader, PPC2W2 = Dual PHD + C2W2-type Zn-finger
  Array Heatmap signal, DPF2 (PPC2W2): 0.6876
PHRF1 (RP); GST-tagged reader
  Array Heatmap signal, PHRF1 (RP): 0.5307
KDM5A (1); GST-tagged reader
  Array Heatmap signal, KDM5A (1): 0.4479
PHF2; GST-tagged reader
  Array Heatmap signal, PHF2: 0.4794
KDM7A; GST-tagged reader
  Array Heatmap signal, KDM7A: 0.3276
KDM4C (TTP); GST-tagged reader, TTP = Tandem Tudor domain + PHD
  Array Heatmap signal, KDM4C (TTP): 0.4748
DIDO1; GST-tagged reader
  Array Heatmap signal, DIDO1: 0.6429
ING1; GST-tagged reader
  Array Heatmap signal, ING1: 0.5158
ING5; GST-tagged reader
  Array Heatmap signal, ING5: 0.3526
AIRE (PP); GST-tagged reader
  Array Heatmap signal, AIRE (PP): 0.4377
MORC3 (CW); GST-tagged reader, CW = CW-type Zn-finger
  Array Heatmap signal, MORC3 (CW): 0.3968
CHD5 (PCC); GST-tagged reader, PCC = PHD + Dual Chromodomain
  Array Heatmap signal, CHD5 (PCC): 0.7379
KDM5B (3); GST-tagged reader
  Array Heatmap signal, KDM5B (3): 0.458
RAG2; GST-tagged reader
  Array Heatmap signal, RAG2: 0.2506
PHF23; GST-tagged reader
  Array Heatmap signal, PHF23: 0.5274
CHD4 (PPCC); [1]
  Array Heatmap signal, CHD4 (PPCC): 0.5779
SP140L; GST-tagged reader
  Array Heatmap signal, SP140L: 0.3819
KDM5A (3); GST-tagged reader
  Array Heatmap signal, KDM5A (3): 0.4381
PHF13; GST-tagged reader
  Array Heatmap signal, PHF13: 0.6132
BPTF (PB); [2]
  Array Heatmap signal, BPTF (PB): 0.3511
MLL5; GST-tagged reader
  Array Heatmap signal, MLL5: 0.528
TRIM66 (PB); [2]
  Array Heatmap signal, TRIM66 (PB): 0.5969
PHF21A; GST-tagged reader
  Array Heatmap signal, PHF21A: 0.4744
ING2; GST-tagged reader
  Array Heatmap signal, ING2: 0.5969
ING3; GST-tagged reader
  Array Heatmap signal, ING3: 0.4908
ING4; GST-tagged reader
  Array Heatmap signal, ING4: 0.4561
BAZ2B; GST-tagged reader
  Array Heatmap signal, BAZ2B: 0.4426
TAF3; GST-tagged reader
  Array Heatmap signal, TAF3: 0.2583
PHF8; GST-tagged reader
  Array Heatmap signal, PHF8: 0.3446
CHD5 (PPCC); [1]
  Array Heatmap signal, CHD5 (PPCC): 0.5427
KDM5B (1); GST-tagged reader
  Array Heatmap signal, KDM5B (1): 0.6708

## H4 (11-27): H4 11-27
DPF2 (PPC2W2); GST-tagged DPF2 (PPC2W2 = Dual PHD + C2W2-type Zn-finger)
  Array Heatmap signal, DPF2 (PPC2W2): 0.705
PHRF1 (RP); GST-tagged PHRF1 (RP)
  Array Heatmap signal, PHRF1 (RP): 0.4565
KDM5A (1); GST-tagged KDM5A (1)
  Array Heatmap signal, KDM5A (1): 0.4724
PHF2; GST-tagged PHF2
  Array Heatmap signal, PHF2: 0.5451
KDM7A; GST-tagged KDM7A
  Array Heatmap signal, KDM7A: 0.3743
KDM4C (TTP); GST-tagged KDM4C (TTP = Tandem Tudor domain + PHD)
  Array Heatmap signal, KDM4C (TTP): 0.4895
DIDO1; GST-tagged DIDO1
  Array Heatmap signal, DIDO1: 0.7393
ING1; GST-tagged ING1
  Array Heatmap signal, ING1: 0.5543
ING5; GST-tagged ING5
  Array Heatmap signal, ING5: 0.3644
AIRE (PP); GST-tagged AIRE (PP)
  Array Heatmap signal, AIRE (PP): 0.4611
MORC3 (CW); GST-tagged MORC3 (CW = CW-type Zn-finger)
  Array Heatmap signal, MORC3 (CW): 0.3632
CHD5 (PCC); GST-tagged CHD5 (PCC = PHD + Dual Chromodomain)
  Array Heatmap signal, CHD5 (PCC): 0.8335
KDM5B (3); GST-tagged KDM5B (3)
  Array Heatmap signal, KDM5B (3): 0.4786
RAG2; GST-tagged RAG2
  Array Heatmap signal, RAG2: 0.2544
PHF23; GST-tagged PHF23
  Array Heatmap signal, PHF23: 0.5647
CHD4 (PPCC); GST-tagged CHD4 (PPCC = Dual PHD + Dual Chromodomain)
  Array Heatmap signal, CHD4 (PPCC): 0.6032
SP140L; GST-tagged SP140L
  Array Heatmap signal, SP140L: 0.3427
KDM5A (3); GST-tagged KDM5A (3)
  Array Heatmap signal, KDM5A (3): 0.4231
PHF13; GST-tagged PHF13
  Array Heatmap signal, PHF13: 0.6301
BPTF (PB); GST-tagged BPTF (PB = PHD + Bromodomain)
  Array Heatmap signal, BPTF (PB): 0.3518
MLL5; GST-tagged MLL5
  Array Heatmap signal, MLL5: 0.5751
TRIM66 (PB); GST-tagged TRIM66 (PB = PHD + Bromodomain)
  Array Heatmap signal, TRIM66 (PB): 0.6367
PHF21A; GST-tagged PHF21A
  Array Heatmap signal, PHF21A: 0.4899
ING2; GST-tagged ING2
  Array Heatmap signal, ING2: 0.6025
ING3; GST-tagged ING3
  Array Heatmap signal, ING3: 0.5001
ING4; GST-tagged ING4
  Array Heatmap signal, ING4: 0.4682
BAZ2B; GST-tagged BAZ2B
  Array Heatmap signal, BAZ2B: 0.4866
TAF3; GST-tagged TAF3
  Array Heatmap signal, TAF3: 0.2827
PHF8; GST-tagged PHF8
  Array Heatmap signal, PHF8: 0.3468
CHD5 (PPCC); GST-tagged CHD5 (PPCC = Dual PHD + Dual Chromodomain)
  Array Heatmap signal, CHD5 (PPCC): 0.5646
KDM5B (1); GST-tagged KDM5B (1)
  Array Heatmap signal, KDM5B (1): 0.652
